Laboratory results reported in patent US20070093513A1, “Agent for repairing corneal perception” (SENJU PHARMACEUTICAL CO., LTD., priority 2003, published 2007).
Where a name gives a salt, the structure may show the parent alone.

Tests used:
[1] = test system: cultured rabbit trigeminal nerve cells; assay: Neurite outgrowth promoting effect in cultured rabbit trigeminal nerve cells (Experimental Example 2); type: cell-based, Japanese White Rabbits; conditions: cultured for 48 hrs, non-addition group about 31%
Text: Japanese White Rabbits (2-3 days old) purchased from KITAYAMA LABES Co., Ltd. were used.
As a ROCK inhibitor, 2-chloro-6,7-dimethoxy-N-[5-1H-indazolyl]quinazoline-4-amine, N-(1-benzyl-4-piperidinyl)-1H-indazole-5-amine dihydrochloride, 4-[2-(2,3,4,5,6-pentafluorophenyl)acryloyl]cinnamic acid and fasudil hydrochloride were used.
2-Chloro-6,7-dimethoxy-N-[5-1H-indazolyl]quinazoline-4-amine (hereinafter to be indicated as compound 1) used was synthesized according to Reference Example 1. N-(1-benzyl-4-piperidinyl)-1H-indazole-5-amine dihydrochloride.½ hydrate (hereinafter to be indicated as compound 2) used was synthesized according to Reference Example 2. 4-[2-(2,3,4,5,6-Pentafluorophenyl)acryloyl]cinnamic acid (hereinafter to be indicated as compound 3) used was synthesized according to Reference Example 3. Fasudil hydrochloride (hereinafter to be indicated as compound 4) used was a commercially available fasudil hydrochloride hydrate injection, “Eril Injection 30 mg” (manufactured by Asahi Kasei Corporation).
Rabbit trigeminal nerve cells were isolated in the same manner as in Experimental Example 1. For cell culture, a culture medium obtained by adding B27 Supplement (manufactured by GIBCO; final concentration 2% v/v) and L-glutamine (manufactured by GIBCO; concentration 1 mM) to neurobasal culture medium (manufactured by GIBCO) was used. A circular cover glass (diameter 12 mm; manufactured by SUMITOMO BAKELITE) after polylysine/laminin coating was placed in each well of a 24 well plate, and cells were plated on the cover glass at about 3×10^3 cells/well. After cell adhesion to the cover glass (about 2 hrs), the above-mentioned culture medium was changed to a culture medium containing each test substance (compound 1, final concentration 10 μM; compound 2, final concentration 10 μM; compound 3, final concentration 1 μM; compound 4, final concentration 10 μM) and the cells were cultured for 48 hrs. […]
A specimen fixed using an anti-neurofilament 200 antibody (manufactured by Sigma) that recognize neurofilaments, which are intermediate filaments specific to nerve cell, and a fluorescent secondary antibody (manufactured by Molecular Probes) reactive therewith was fluorescence stained and the stained cells were detected using a fluorescence microscope. […] The whole cell number (t) of each image was counted. Along therewith, the length of cell neurite and the diameter of cell body were measured using an image analysis software (MacSCOPE, manufactured by MITANI CO.), and the cells having a neurite with a length of not less than twice the diameter of the cell body were counted as neuritogenetic cell (a). Then the rate (%) of the total neuritogenetic cell number (a1+a2+ . . . +an=Σa) to the total cell number (Σt) was calculated. […]

melting point [°C]	Structure (SMILES)	rate of the neuritogenetic cells relative to the total cells ([1]; final concentration 10 μM)	rate of the neuritogenetic cells relative to the total cells ([1]; final concentration 1 μM)
278.7 to 283.8	COc1cc2nc(Cl)nc(Nc3ccc4[nH]ncc4c3)c2cc1OC [compound 1, 2-Chloro-6,7-dimethoxy-N-[5-1H-indazolyl]quinazoline-4-amine]	about 41%	
	C=C(C(=O)c1ccc(C=CC(=O)O)cc1)c1c(F)c(F)c(F)c(F)c1F [compound 3, 4-[2-(2,3,4,5,6-Pentafluorophenyl)acryloyl]cinnamic acid]		about 51%
	O=S(=O)(c1cccc2cnccc12)N1CCCNCC1 [compound 4, Fasudil hydrochloride]	about 70%	
	Cl.Cl.Cl.Cl.O.c1ccc(CN2CCC(Nc3ccc4[nH]ncc4c3)CC2)cc1.c1ccc(CN2CCC(Nc3ccc4[nH]ncc4c3)CC2)cc1 [compound 2, N-(1-benzyl-4-piperidinyl)-1H-indazole-5-amine dihydrochloride.½ hydrate]	about 57%	
